Measured values reported in patent publication US20100009934A1, “BETA ADRENERGIC RECEPTOR AGONISTS FOR THE TREATMENT OF B-CELL PROLIFERATIVE DISORDERS” (CombinatoRx, Incorporated, priority 2008, published 2010).

System: human multiple myeloma xenografts (MM1S)
Assay: MM.1S xenograft model in SCID mice
Type: in vivo, mouse
Conditions: Dex 1 mg/kg or salmeterol 10 mg/kg, subcutaneous daily
Method: The human multiple myeloma cell line MM1S was injected subcutaneously into the flanks of SCID mice. Five days following the injection of MM1S cells, animals were randomized into the following four treatment groups (n=6-7) based on tumor size.
Group 1—Vehicle (90% PBS+10% EtOH)
The prepared test, positive, and negative control substances were administered via subcutaneous injection daily for up to 85 Days. During the treatment period, tumor volume and animal body weights were measured 3 times per week (Monday, Wednesday and Friday). The animals were removed from the study if there was overall poor body condition, tumor volume above 3000 mm^3, body weight loss greater than or equal to 20% or ulcerated tumors.
The slope of the tumor volume growth of each animal was calculated from the initial study day until the day each animal was removed from the study. From these slopes the mean change in tumor volume per study day was calculated.

OCc1cc(C(O)CNCCCCCCOCCCCc2ccccc2)ccc1O (stereo not shown) [salmeterol]
study day by which all animals of the group were removed: ≤ 43 study day
